# In ChEMBL document CHEMBL5576134, “Targeting Pancreatic Cancer with Novel Nicolaioidesin C Derivatives: Molecular Mechanism, In Vitro, and In Vivo Evaluations” (J Med Chem, 2024):
# The source made the active and inactive calls. The rule behind the calls is not given here.
# Legend:
# MIA PaCa-2 [1] = experiment: Antitumor activity against human MIA PaCa-2 cells xenografted in BALB/c/Nu/Nu mouse assessed as reduction in final tumor weight at 20 mg/kg, ip administered 5 times a week for 4 weeks (reference value: […]); type: functional
# MIA PaCa-2 [2] = experiment: Induction of endoplasmic reticulum (ER) stress in human MIA PaCa-2 cells in NDM medium assessed as change in TRB3 level at 5 uM measured after 6 hrs by Western blot analysis; type: functional, cell-based
# PANC-1 [3] = experiment: Preferential cytotoxicity against human PANC-1 cells in nutrient-deprived medium measured after 24 hrs by WST-8 cell counting analysis; type: functional
# MIA PaCa-2 [4] = experiment: Antitumor activity against human MIA PaCa-2 cells xenografted in BALB/c/Nu/Nu mouse assessed as tumor volume at 20 mg/kg, ip administered 5 times a week for 4 weeks and measured on day 32 (reference value: 1417 mm3); type: functional; conditions: time 32 day
# [5] = Selectivity index, ratio of IC50 for preferential cytotoxicity against human PANC-1 cells in DMEM to PC50 for preferential cytotoxicity against human PANC-1 cells in nutrient-deprived medium; type: functional
# [6] = Toxicity in BALB/c/Nu/Nu mouse xenografted with human MIA PaCa-2 cells assessed as change in body weight at 20 mg/kg, ip administered 5 times a week for 4 weeks; type: organism-based; conditions: in vivo, 672 h
# MIA PaCa-2 [7] = experiment: Induction of endoplasmic reticulum (ER) stress in human MIA PaCa-2 cells assessed as reduction in GRP78 expression at 5 uM measured after 6 hrs by Western blot analysis; type: functional, cell-based
# Mus musculus [8] = experiment: In-vivo modulation of PI3K/AKT/mTOR signalling pathway in human MIA PaCa-2 cells xenografted in BALB/c/Nu/Nu mouse assessed as downregulation of mTOR phosphorylation at 60 mg/kg, ip administered 5 times a week for 4 weeks in presence of gemcitabine by Western blot analysis; type: functional, organism-based
# Mus musculus [9] = experiment: In-vivo modulation of PI3K/AKT/mTOR signalling pathway in human MIA PaCa-2 cells xenografted in BALB/c/Nu/Nu mouse assessed as downregulation of GRP78 level at 60 mg/kg, ip administered 5 times a week for 4 weeks in presence of gemcitabine by Western blot analysis; type: functional, organism-based
# [10] = Modulation of PI3K/AKT/mTOR signalling pathway in human MIA PaCa-2 cells in DMEM medium assessed as downregulation of AKT expression at 1 to 5 uM incubated for 24 hrs in presence of gemcitabine by Western blot analysis; type: cell-based; conditions: filed as modulator, dose 1-5 µM
# MIA PaCa-2 [11] = experiment: Synergistic antitumor activity against human MIA PaCa-2 cells xenografted in BALB/c/Nu/Nu mouse assessed as increase in pleomorphism at 60 mg/kg, ip administered 5 times a week for 4 weeks by H and E staining based analysis; type: functional, organism-based
# MIA PaCa-2 [12] = experiment: Antimetastatic activity in human MIA PaCa-2 cells in DMEM media assessed as inhibition of colony formation incubated for 24 hrs by crystal violet staining-based assay; type: functional, cell-based; conditions: dose 5-20 µM
# [13] = Selectivity index, ratio of IC50 for preferential cytotoxicity against human MIA PaCa-2 cells in DMEM to PC50 for preferential cytotoxicity against human MIA PaCa-2 cells in nutrient-deprived medium; type: functional
# MIA PaCa-2 [14] = experiment: Preferential cytotoxicity against human MIA PaCa-2 cells in DMEM measured after 24 hrs by WST-8 cell counting analysis; type: functional, cell-based; conditions: MIA PaCa-2, 24 h
# MIA PaCa-2 [15] = experiment: Antimetastatic activity in human MIA PaCa-2 cells in DMEM media assessed as reduction in colony area at 10 uM incubated for 24 hrs by crystal violet staining-based assay; type: functional; parameters: scale not given: the % may be the effect or the level left
# MIA PaCa-2 [16] = experiment: Antitumor activity against human MIA PaCa-2 cells xenografted in BALB/c/Nu/Nu mouse assessed as tumor volume at 60 mg/kg, ip administered 5 times a week for 4 weeks and measured on day 32 in presence of gemcitabine (reference value: 1417 mm3); type: functional; conditions: time 32 day
# MIA PaCa-2 [17] = experiment: Antimetastatic activity in human MIA PaCa-2 cells in DMEM media assessed as inhibition of cell migration at 10 uM incubated for 18 hrs relative to control (reference value: 64%); type: functional
# MIA PaCa-2 [18] = experiment: Induction of endoplasmic reticulum (ER) stress in human MIA PaCa-2 cells assessed as reduction in CHOP expression measured after 6 hrs by Western blot analysis; type: functional, cell-based; conditions: dose 5.0 µM
# [19] = Toxicity in BALB/c/Nu/Nu mouse xenografted with human MIA PaCa-2 cells assessed as change in body weight at 60 mg/kg, ip administered 5 times a week for 4 weeks in presence of gemcitabine; type: organism-based; conditions: in vivo, 672 h
# MIA PaCa-2 [20] = experiment: Antimetastatic activity in human MIA PaCa-2 cells in DMEM media assessed as reduction in colony area at 5 uM incubated for 24 hrs by crystal violet staining-based assay (reference value: 37%); type: functional; parameters: scale not given: the % may be the effect or the level left
# [21] = Toxicity in BALB/c/Nu/Nu mouse xenografted with human MIA PaCa-2 cells assessed as change in abdominal organs at 60 mg/kg, ip administered 5 times a week for 4 weeks; type: organism-based; conditions: in vivo, 672 h
# [22] = Modulation of PI3K/AKT/mTOR signalling pathway in human MIA PaCa-2 cells in DMEM medium assessed as downregulation of AKT expression incubated for 24 hrs in presence of gemcitabine by Western blot analysis; type: cell-based; conditions: filed as modulator, dose 1-5 µM
# MIA PaCa-2 [23] = experiment: Preferential cytotoxicity against human MIA PaCa-2 cells in nutrient-deprived medium assessed as alteration in cell morphology by fluorescence intensity measured after 24 hrs by acridine orange and ethidium bromide dual fluorescent staining based microscopic analysis; type: functional; conditions: dose 0.5-1 µM
# MIA PaCa-2 [24] = experiment: Preferential cytotoxicity against human MIA PaCa-2 cells in nutrient-deprived medium assessed as alteration in cell morphology by measuring cell rounding at 0.5 to 1 uM measured after 24 hrs by acridine orange and ethidium bromide dual fluorescent staining based microscopic analysis; type: functional; conditions: dose 0.5-1 µM
# Mus musculus [25] = experiment: In-vivo modulation of PI3K/AKT/mTOR signalling pathway in human MIA PaCa-2 cells xenografted in BALB/c/Nu/Nu mouse assessed as downregulation of TRB3 level at 60 mg/kg, ip administered 5 times a week for 4 weeks in presence of gemcitabine by Western blot analysis; type: functional, organism-based
# PANC-1 [26] = experiment: Preferential cytotoxicity against human PANC-1 cells in DMEM measured after 24 hrs by WST-8 cell counting analysis; type: functional, cell-based; conditions: PANC-1, 24 h
# MIA PaCa-2 [27] = experiment: Antitumor activity against human MIA PaCa-2 cells xenografted in BALB/c/Nu/Nu mouse assessed as reduction in tumor volume at 20 mg/kg, ip administered 5 times a week for 4 weeks and measured on day 16; type: functional, organism-based; conditions: time 16.0 day
# MIA PaCa-2 [28] = experiment: Induction of endoplasmic reticulum (ER) stress in human MIA PaCa-2 cells in DMEM medium assessed as change in TRB3 level at 5 uM measured after 6 hrs by Western blot analysis; type: functional, cell-based
# MIA PaCa-2 [29] = experiment: Antitumor activity against human MIA PaCa-2 cells xenografted in BALB/c/Nu/Nu mouse assessed as reduction in final tumor weight at 60 mg/kg, ip administered 5 times a week for 4 weeks in presence of gemcitabine (reference value: […]); type: functional
# MIA PaCa-2 [30] = experiment: Induction of endoplasmic reticulum (ER) stress in human MIA PaCa-2 cells xenografted in BALB/c/Nu/Nu mouse assessed as downregulation of GRP78 expression in presence of gemcitabine by immunohistochemistry analysis; type: functional, cell-based
smiles,measurement,setting,value
CC(C)=CCCC1=CC[C@H](C(=O)c2c(O)cccc2O)[C@@H](c2cccc(F)c2F)C1 (relative stereo),Activity,MIA PaCa-2 [1],321 mg
same,Activity,MIA PaCa-2 [2],Active
same,PC50,PANC-1 [3],0.23 µM
same,Activity,MIA PaCa-2 [4],879 mm3
same,Selectivity Index,[5],40.8
same,Activity,[6],Non-Toxic
same,Activity,MIA PaCa-2 [7],Active
same,Activity,Mus musculus [8],Active
same,Activity,Mus musculus [9],Active
same,Activity,[10],Active
same,Activity,MIA PaCa-2 [11],Active
same,Activity,MIA PaCa-2 [12],Dose-Dependent Effect
same,Selectivity Index,[13],176
same,IC50,MIA PaCa-2 [14],60.2 µM
same,Activity,MIA PaCa-2 [15],91%
same,Activity,MIA PaCa-2 [16],528 mm3
same,inhibition at 10 µM,MIA PaCa-2 [17],92%
same,Activity,MIA PaCa-2 [18],Dose-Dependent Effect
same,Activity,[19],Non-Toxic
same,Activity,MIA PaCa-2 [20],14%
same,Activity,[21],Non-Toxic
same,Activity,[22],Dose-Dependent Effect
same,Activity,MIA PaCa-2 [23],Dose-Dependent Effect
same,Activity,MIA PaCa-2 [24],Active
same,Activity,Mus musculus [25],Active
same,IC50,PANC-1 [26],9.2 µM
same,Activity,MIA PaCa-2 [27],Active
same,Activity,MIA PaCa-2 [28],Active
same,Activity,MIA PaCa-2 [29],139 mg
same,Activity,MIA PaCa-2 [30],Active
